Assay [1] deals with HBV-specific CD8^+ T cells. The assay is described as follows: IFN-γ and granzyme B production in HBV-specific CD8+ T cells from CHB patient PBMCs (7-day expansion and recall, flow cytometry). Format: cell-based, human. Here is the method:
PBMCs were isolated from whole blood using a standard Ficoll® Paque gradient. Briefly, 25-30 mL of blood was gently overlaid on top of 15 mL Ficoll® Paque Plus solution (GE Healthcare, Chicago, Ill.) in a 50 mL Falcon tube, and centrifuged in an Allegra X-14R (Beckman Coulter, Indianapolis, Ind.) at 520 g for 20 minutes at 25° C. […] Next, the cells were centrifuged at 520 g for 5 minutes and red blood cells (RBC) lysed for 5 minutes at room temperature using RBC Lysis Buffer (eBioscience, San Diego, Calif.). […] PBMCs were either subsequently used for the T cell expansion assay, or were cryopreserved with 10% DMSO in FBS before further use.
PBMCs were seeded at 2-4×10^5 cells/well in 96-well round bottom plates (Corning, N.Y.). […] PBMCs were incubated for 7 days at 37° C. with 5% CO2 in a humidified incubator. […] To inhibit protein transport, 1 μg/mL brefeldin. A solution (Sigma) was added to each well. After overnight incubation, cells were processed for immunostaining and flow cytometry as described herein.
Washed cells were resuspended in Live/Dead Aquamine Stain (Invitrogen) per manufacturer's instructions to determine the viability of the cells by flow cytometry. Live/Dead Aqua stained PBMCs were washed twice with FACS staining buffer (1% FBS in PBS), and then incubated with 50 μL of Fc blocking reagent (BD Biosciences, Franklin Lakes, N.J.) for 10 minutes at room temperature. A mixture of antibodies (50 μL/well) described in Table 6 were added to the blocking solution for surface staining, and PBMCs were incubated with the antibodies for 40 minutes at 4° C. […] Cells were washed twice with the permeabilization reagent included in the FoxP3 staining kit and incubated with antibodies for intracellular staining of IFN-γ and GrB (Table 6) at 1.0 μg/mL. After 1 hour incubation at 4° C., PBMCs were centrifuged and washed twice before being resuspended in FACS buffer. Stained PBMCs were analyzed by flow cytometry using a BD LSRFortessa X-20 Cell Analyzer (Becton Dickinson). BD Comp Beads (BD Biosciences) were used as compensation controls. CD8^+ and CD4^+ T cells were identified by gating on the live Aquamine ^−CD3^+CD8^+ and Aquamine-CD3+CD4^+ PBMC population respectively.
Flow cytometry data was analyzed using FlowJo Flow Cytometry Analysis Software v10 (TreeStar, Ashland, Oreg.). Data was exported and statistical analysis was performed using GraphPad Prism v6 (GraphPad Software, La Jolla, Calif.). Statistical significance relative to the DMSO control was calculated by two-tailed, paired t-test.
A general note: A flow cytometer gives signals particle by particle.

Assay [2] addresses PD-1/PD-L1 (Homo sapiens (Human), UniProt Q9NZQ7). The assay is described as follows: PD-1/PD-L1 biochemical protein-protein interaction assay (ALPHA). Conditions: 0.3 nM His tagged PD-L1, 2.5 nM biotinylated Fc-PD-1, 60 minutes at 25° C., read-out: IC50 PD-L1-PD1.
[3] abbreviates: 650 nM, HBV core peptide-stimulated PBMCs from 14 CHB donors.
[4] abbreviates: PBMCs from 9 of the 14 CHB donors, compound 139 650 nM, durvalumab 10 μg/mL.
The mark [5] stands for this setting: average over CHB donors (14 for compound 139, 9 for durvalumab).
Where [6] appears, read: individual CHB donor, HBV core peptide-stimulated PBMCs, compound 139 at 650 nM.

Each structure is given as a SMILES string. “And” between values parts separate entries of the source, which are not always exact repeats. Equal entries are not always repeated.

Sequence of PD-1/PD-L1 (Q9NZQ7 19-238): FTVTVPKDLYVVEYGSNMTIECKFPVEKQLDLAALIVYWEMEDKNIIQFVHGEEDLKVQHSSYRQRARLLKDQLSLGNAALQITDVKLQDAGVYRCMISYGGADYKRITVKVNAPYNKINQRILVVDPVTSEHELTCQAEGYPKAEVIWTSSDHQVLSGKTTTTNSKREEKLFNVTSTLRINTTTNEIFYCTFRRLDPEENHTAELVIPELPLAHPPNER

Regarding `COc1nc(-c2cccc(-c3cccc(-c4cnc(CNC[C@@H]5CCC(=O)N5)c(OC)n4)c3Cl)c2Cl)cnc1CNC[C@@H]1CCC(=O)N1` [compound 139], in assay [1] (setting [3]), the “increase of frequency of GrB^+ CD8^+ T cells compared with DMSO” value was determined as 1.2 fold and the “increase of frequency of IFN-γ^+ CD8^+ T cells compared with DMSO” value worked out at 2.5 fold. Moreover, in assay [1] (setting [4]), the “increase of GrB^+ CD8^+ T cells, comparison with durvalumab” value is on record as 1.2 fold and the “increase of IFN-γ^+ CD8^+ T cells, comparison with durvalumab” value is listed as 2.5 fold. Besides, in assay [1] (setting [5]), the “% GrB+ (GrB+ CD8+ T cells), Average” value was determined as 33.68% and the “% IFN-γ+ (IFN-γ+ CD8+ T cells), Average” value amounted to 3.13%. Moreover, in assay [1] (setting [6]), the “% GrB+ (GrB+ CD8+ T cells)” value was 47.80% and 8.78% and 50.30% and 30.67% and 28.15% and 24.10% and 45.05% and 20.20% and 33.50% and 52.67% and 18.93% and 23.23% and 55.80% and 32.30%; the “% IFN-γ+ (IFN-γ+ CD8+ T cells)” value was 2.63% and 0.94% and 0.41% and 0.61% and 3.06% and 0.90% and 3.28% and 4.69% (2×) and 0.30% and 7.74% and 1.86% and 11.17% and 1.53%.

`CN(C)c1nc(-c2cccc(-c3cccc(-c4cnc(CNC[C@@H]5CCC(=O)N5)c(Cl)n4)c3Cl)c2Cl)cnc1CNC[C@@H]1CCC(=O)N1` [compound 106]: the IC50 in assay [2] was 0.36 nM.

In the case of `COc1nc(-c2cccc(-c3cccc(-c4cnc(CNC[C@@H]5CCC(=O)N5)c(OC)n4)c3Cl)c2Cl)cnc1CNCC1CNC1` [compound 255], in assay [2], the IC50 was determined as 0.08 nM.

With `COc1nc(-c2cccc(-c3cccc(-c4cnc(CNC[C@@H]5CCC(=O)N5)c(OC)n4)c3Cl)c2Cl)ccc1C1=NCCN1` [compound 117], in assay [2], the IC50 was 0.281 nM.

As for `COc1nc(-c2cccc(-c3cccc(-c4cnc(CN5CCC(c6cc[nH]n6)C5)c(OC)n4)c3Cl)c2Cl)cnc1CNC[C@@H]1CCC(=O)N1` (stereo partly shown) [compound 515], the IC50 in assay [2] stood at 0.342 nM.

In the case of `COc1nc(-c2cccc(-c3cccc(-c4cnc(CN5CC[C@H](C(C)(C)O)C5)c(OC)n4)c3Cl)c2Cl)cnc1CNC[C@@H]1CCC(=O)N1` [compound 502], in assay [2], the IC50 worked out at 0.064 nM.

As to `COc1nc(-c2cccc(-c3cccc(-c4cnc(CN[C@@H]5CCOC5)c(OC)n4)c3Cl)c2Cl)cnc1CN[C@@H]1CCOC1` [compound 143], the IC50 in assay [2] amounted to 0.41 nM.

Regarding `COc1nc(-c2cccc(-c3cccc(-c4cnc(CNCC5(O)COC5)c(OC)n4)c3Cl)c2Cl)cnc1CNC[C@@H]1CCC(=O)N1` [compound 589], the IC50 in assay [2] is 0.291 nM.

Turning to `COc1nc(-c2cccc(-c3cccc(-c4cnc(CNC5CC6(C5)CN(C(C)=O)C6)c(OC)n4)c3Cl)c2Cl)cnc1CNC[C@H]1CCC(=O)N1` [compound 208], the IC50 in assay [2] amounted to 0.223 nM.

For the compound `COc1nc(-c2cccc(-c3cccc(-c4cnc(CNC[C@@H]5CCC(=O)N5)c(OC)n4)c3Cl)c2Cl)cnc1CN` [compound 318], the IC50 in assay [2] is 0.15 nM.

Regarding `COc1nc(-c2cccc(-c3cccc(-c4cnc(CN[C@H]5C[C@H](C(N)=O)C5)c(OC)n4)c3Cl)c2Cl)cnc1CNC[C@@H]1CCC(=O)N1` [compound 465], the IC50 in assay [2] was 0.158 nM.

Turning to `COc1nc(-c2cccc(-c3cccc(-c4cnc(CN5CC[C@@H](C(C)(C)O)C5)c(OC)n4)c3Cl)c2Cl)cnc1CN1CC[C@@H](C(C)(C)O)C1` [compound 499], the IC50 in assay [2] was 0.203 nM.

What is called IC50 is the concentration needed to halve the response being measured.

For the origin of these results see patent publication US10710986B2, “PD-1/PD-L1 inhibitors” (Gilead Sciences, Inc., priority 2018, dated 2020).
